From PubChem BioAssay AID2305 (GlaxoSmithKline (GSK), 2010)
“And” between values parts separate entries of the source, which are not always exact repeats. Identical values can stand only once.

What follows are molecules tested on P. falciparum 3D7 growth, pLDH absorbance (assay: blood-stage malaria parasite growth potency – strain 3D7, dose response (AID 2305)).

| Structure (SMILES) | IC50 |
| --- | --- |
| CCN(CC)CCCNC(=O)/C(=C/C=C/c1cc2cc(Cl)c(Cl)cc2[nH]1)OC | 1160 nM |
| CC(C)COc1ccc(Cl)cc1Cc1nc(-c2nc3nc(N4CCN(C)CC4)ccc3[nH]2)cs1 | 750 nM |
| CCCCCCCCCN(CCC)C(=O)[C@@H]1OC(C(=O)OC(c2ccccc2)c2ccccc2)=C[C@H](NC(=O)OC(C)(C)C)[C@H]1NC(C)=O | 640 nM |
| Cc1cc(-c2ccc(CNCCc3cccs3)cc2)ccc1S(=O)(=O)NCc1ccccc1 | 1140 nM |
| O=c1cc(NCCCN(Cc2ccccc2)Cc2ccccc2)[nH]c2ccccc12 | 580 nM |
| O=C(/C=C/c1ccc(Cl)c(Cl)c1)NCCCCCN1CCC(NC(=O)c2ccc(F)cc2F)CC1 | 760 nM |
| COc1ccc(-c2nc3c(N)nc(N)nc3nc2-c2ccccc2Cl)cc1 (tested in a mixture with another compound) | 550 nM |
| Cc1[nH]c(C)c(-c2ccc(-c3ccc(C#N)cc3)nc2)c(=O)c1Br | 980 nM |
| C=CCN1Cc2c(O)cccc2C(c2ccc(O)c(O)c2)C1 (configuration not stated) | 670 nM |
| O=C(/C=C/c1ccc(Cl)c(Cl)c1)NCCCCCN1CCC(NC(=O)Nc2ccccc2Cl)CC1 | 710 nM |
| COc1ccccc1NC(=O)OC(COc1ccc(N)cc1)CN1CC=C(c2ccccc2)CC1 (configuration not stated) | 1040 nM |
| COCC(=O)N(Cc1ccccc1-c1cccc(CNCc2ccc3c(c2)OCO3)c1)C1CCN(Cc2ccccc2)CC1 | 840 nM |
| Cc1cccc(CNc2nc(C)cc(N[C@@H](Cc3ccccc3)C(=O)NCc3cccc(F)c3)n2)c1 | 1040 nM |
| O=C(Nc1cccc2ccccc12)N1CCC(NS(=O)(=O)c2cccc(C(F)(F)F)c2)CC1 | 910 nM |
| O=C(Nc1ccc(-c2ccc(-c3nc4ccccc4[nH]3)s2)cc1)Nc1ccsc1 | 280 nM |
| Cc1ccc(NC(=O)c2ccc(Cl)c(Cl)c2)cc1-c1ccc(C(=O)Nc2ccncc2)cc1 | 570 nM |
| Cc1cc(N2CCCC2)nc(/N=C(\N)Nc2cccc(C(F)(F)F)c2)n1 | 320 nM |
| CCCCN(CCCC)CCNC(=O)c1cc(OC(F)(F)F)ccc1O | 920 nM |
| COC(=O)c1cc(/C(C)=N/Nc2nc3ccccc3[nH]2)ccc1O | 680 nM |
| CCCCN1CCN(c2cc(NS(=O)(=O)c3cccc(C(=O)Nc4ccc(C(F)(F)F)cc4)c3)ccc2OC)CC1 | 690 nM |
| CCNc1cc(C(=O)N[C@@H](Cc2ccccc2)[C@H](O)CNC(C)(C)Cc2cccc(OC)c2)cc(N2CCCC2=O)c1 | 710 nM |
| CC(C)[C@H]1C(=O)N(S(C)(=O)=O)[C@H]2CCN(C(=O)c3ccc(CN4CCCCC4)c([N+](=O)[O-])c3)[C@H]12 | 620 nM |
| Cc1cccc2[nH]c(-c3ccc(-c4ccc(CNCCNC(=O)c5ccnn5C)cc4)cc3)nc12 | 480 nM |
| Nc1c(Cl)cc(C(O)CNCCCCCCOCCc2ccc(O)cc2)cc1Cl (configuration not stated) | 730 nM |
| CN1CCCN(Cc2cccc(-c3cccc(NC(=O)c4cccc(C#N)c4)c3)c2)CC1 | 820 nM |

| Structure (SMILES) | IC50 |
| --- | --- |
| Cc1cc(Nc2nc(NCc3cccnc3)nc3ccccc23)n[nH]1 | 850 nM |
| CCN(CC)c1ccc2nc(N)nc(N)c2c1Cl | 30 nM |
| CCc1cc(NC2CCN(C)CC2)nc(Nc2ccc(C)cc2)n1 | 690 nM |
| CN(C)Cc1cccc(-c2ccc(Nc3nccc(NCC(O)c4ccccc4)n3)cc2)c1 (configuration not stated) | 140 nM |
| CC(C)C[C@H]1C(=O)N[C@H](C2Cc3ccccc3C2)C(=O)N1[C@@H](C(=O)Nc1ccccc1OCc1ccccc1)c1ccc(F)cc1F | 1020 nM |
| Cc1noc(-c2cccs2)c1C(=O)NC(C)c1cccc2ccccc12 (configuration not stated) | 130 nM |
| CCc1cccc2c(C#N)cn(CC(=O)Nc3ccc(OC)cc3)c12 | 770 nM |
| Cc1ccc(CN2CCCN(Cc3cccc(NC(=O)c4ccc(-c5ccccc5)cc4)c3)CC2)cc1C | 1250 nM |
| CCOc1ccc(C2CCN(CCCCNC(=O)c3ccc(NC(=O)c4ccc(Cl)cc4)cc3)CC2)c(OCC)c1 | 680 nM |
| Cc1cc(NN=Cc2ccccc2F)c2ccccc2n1 | 920 nM |
| COc1ccccc1Nc1nc(C)cc(NCc2ccc(-n3ccnc3)cc2)n1 | 1050 nM |
| C=CCOc1ccc(C(=O)Nc2nonc2-c2ccc(OC)c(OC)c2)cc1 | 640 nM |
| Oc1ccc(CCNc2nc(NCCCOc3ccccc3-c3ccc(F)cc3)nc(N3CCNCC3)n2)cc1 | 1080 nM |
| Cc1[nH]c(C)c(-c2ccc(Oc3ccc(OC(F)(F)F)cc3)cc2)c(=O)c1Br | 560 nM and 110 nM |
| O=C(N[C@@H](CC1CCCCC1)C(=O)NC1CCCCC1)c1ccc(O)c(-c2cccc(C(F)(F)F)c2)c1 | 750 nM |
| CC(C)Cc1nc(N2CCOCC2)c2nnn(Cc3ccccc3)c2n1 | 510 nM |
| Cc1cc(N[C@@H](Cc2ccccc2)C(=O)NCc2cccs2)nc(NCCc2ccc(F)cc2)n1 | 850 nM |
| OC[C@H]1CCCN1CC#Cc1cc2c(Nc3ccc(OCc4cccc(F)c4)c(Cl)c3)ncnc2s1 | 1210 nM |
| Fc1cccc(COc2ccc(Nc3ncnc4ccc(C#C[C@H]5CCCN5)cc34)cc2Cl)c1 | 880 nM |
| CN(C)Cc1c(O)ccc2[nH]c(-c3ccc(OC(F)(F)F)cc3)nc12 | 730 nM |
| Cc1cccc2[nH]c(-c3cccc(-c4ccc(NC(=O)CC5NC(=O)c6ccccc65)cc4)c3)nc12 (configuration not stated) | 290 nM |
| CC(Cc1ccc(OCCN2CCN(c3ccccc3)CC2)cc1)NCC(O)c1cccc(Cl)c1F (configuration not stated) | 870 nM |
| CCN1CCC(N(Cc2ccc(-c3ccc(C(F)(F)F)cc3)o2)C(=O)Cn2c(CCc3cccc(F)c3F)nc(=O)c3ccccc32)CC1 | 1140 nM |
| CC(C)(C)CC(C)(C)c1ccc(O)c(C(=O)Nc2cccc([N+](=O)[O-])c2)c1 | 590 nM |
| O=C(NC1CCN(Cc2ccccc2)CC1)c1ccc(-c2nc3cc4ccccc4cc3[nH]2)s1 | 600 nM |

| Structure (SMILES) | IC50 |
| --- | --- |
| COc1ccc(CN(C)CCCc2ccc(NC(=O)c3cccc4c(=O)c5cccc(F)c5[nH]c34)cc2)cc1OC | 940 nM |
| COc1ccc2c(NN=CC=Cc3ccccc3)cc(C)nc2c1 | 840 nM |
| CC(C)c1ccc(C=CC(=O)NC2CCC(CN3CCC(c4c[nH]c5ccccc45)CC3)CC2)cc1 (configuration not stated) | 810 nM |
| Cc1[nH]c(-c2ccc(F)cc2)cc1C(=O)NC1CCN(Cc2ccccc2)CC1 | 1130 nM |
| CCOC(=O)c1cc(=O)c2ccc(OCC#N)cc2o1 | 1030 nM |
| COc1ccc(OC(C)CNC(=O)c2cc([N+](=O)[O-])ccc2-c2ccc(OC)cc2)cc1 (configuration not stated) | 1150 nM |
| COc1cccc2c(NN=Cc3ccccc3F)ccnc12 | 940 nM |
| O=[N+]([O-])c1cccc(CNCC2CCC(CNCc3cccc([N+](=O)[O-])c3)CC2)c1 (configuration not stated) | 140 nM |
| CN(c1ccc2c(c1)nc(Nc1cc(C(C)(C)C)on1)n2C)c1ccnc(Nc2ccc(CS(C)(=O)=O)cc2)n1 | 900 nM |
| Clc1ccc2c(NCCc3ccccn3)ccnc2c1 | 830 nM |
| Oc1c(CN2CCCC(C(F)(F)F)C2)cc(Cl)c2ccccc12 (configuration not stated) | 1570 nM |
| CS(=O)(=O)N1CC2(CCN(CCC(NC(=S)Nc3ccccc3)c3ccc(Cl)c(Cl)c3)CC2)c2ccccc21 (configuration not stated) | 830 nM |
| Cc1cc(NC(=O)Nc2ccc(Cl)cc2F)c2ccccc2n1 | 550 nM |
| COc1ccc(CCN2CCC(Nc3nc4ccccc4n3CCc3ccc(OC)cc3)CC2)cc1 | 660 nM |
| CC(C)(C(=O)Nc1ccc(C2CCC(NCC3CC3)CC2)c(Cl)c1)c1cccc(OC(F)F)c1 (configuration not stated) | 970 nM |
| N#Cc1cccc(C(=O)Nc2cccc(-c3ccc(CN4CCCC4)cc3)c2)c1 | 700 nM |
| O=C(/C=C/c1ccc(Cl)c(Cl)c1)NCCCCCN1CCN(C(=O)Nc2ccc(Cl)c(C(F)(F)F)c2)CC1 | 820 nM |
| CCN(CC)CCN(Cc1ccc(-c2ccc(C(F)(F)F)s2)cc1)C(=O)Cn1c(CCc2cccc(F)c2F)nc(=O)c2ccccc21 | 990 nM |
| c1ccc2c(NCCCCCCCCNc3ccnc4ccccc34)ccnc2c1 | 160 nM |
| Cc1cc(C(=O)Nc2ccc3c(c2)CCN3C2CCN(Cc3ccc(F)cc3Cl)C2)no1 (configuration not stated) | 190 nM |
| O=C(Nc1cccc(Cl)c1Cl)N1CCc2cc3nccc(N4CCN5CCC[C@H]5C4)c3cc21 | 1040 nM |
| Cc1cccc2[nH]c(-c3ccc(-c4ccc(CN5CCN(CCO)CC5)cc4)s3)nc12 | 710 nM |
| CO/C(=C\C=C\c1cc2cc(Cl)c(Cl)cc2[nH]1)C(=O)NCCCN1CCN(c2cccc(Cl)c2)CC1 | 730 nM |
| CCCN1CCN(Cc2ccc(C(=O)Nc3ccc(Cl)cc3)cc2)CC1 | 50 nM |
| O=C(/C=C/c1ccc(Cl)c(Cl)c1)NCCCCCN1CCCN(C(=O)Nc2cc(F)cc(F)c2)CC1 | 770 nM |

| Structure (SMILES) | IC50 |
| --- | --- |
| Cc1ccc(NC(=O)c2ccnc(N3CCN(c4ccncc4)CC3)c2)cc1F | 870 nM |
| COc1cc(Nc2ncc3c(C)nc(-c4cc5ccccc5[nH]4)n3n2)cc(OC)c1OC | 1020 nM |
| CC1(C)Cc2c(oc3ncn(CCn4cnc5oc6c(c5c4=N)CC(C)(C)SC6)c(=N)c23)CS1 | 720 nM |
| CC(C)CNCc1cccc(-c2ccccc2CN(C(=O)NCCc2ccccc2)C2CCN(Cc3ccccc3)CC2)c1 | 1170 nM |
| CCCn1c(SCC(=O)Nc2cc(C(F)(F)F)ccc2Cl)n[nH]c1=O | 220 nM |
| Cc1ccc2[nH]c3c(NCCN(C)C)ncnc3c2c1 | 840 nM |
| COc1ccc(NS(=O)(=O)c2cc(NC(=O)Cn3ccccc3=O)ccc2N2CCCCC2)cc1 | 700 nM |
| CCOc1ccc2c(c1)C(C)(c1ccc3c(c1)C(C)CC(C)(C)N3)CC(C)(C)N2 (configuration not stated) | 800 nM |
| O=C(/C=C/c1ccccc1F)NC1CCC(CCN2CCc3ccc(-c4cccnc4)cc3CC2)CC1 (configuration not stated) | 900 nM |
| Nc1n[nH]c(-c2ccccc2Nc2ccnc3cc(-c4nccs4)ccc23)n1 | 1120 nM |
| CSc1ccccc1NC(=S)NC1CCN(CCCCCNC(=O)/C=C/c2ccc(Cl)c(Cl)c2)CC1 | 780 nM |
| O=c1cnc2ccc(F)cc2n1CCN1CCC(NCc2cc(-c3ccccc3)cs2)CC1 | 860 nM |
| CN(CC(=O)N1CCN(S(=O)(=O)c2cccc(Cl)c2)CC1CN1CCCC1)c1ccc(Cl)c(Cl)c1 (configuration not stated) | 1240 nM |
| CCCN(CCC)CCCN(CCCN(CCC)CCC)c1cc(C)nc(Nc2ccc(Cl)cc2)n1 | 170 nM |
| Clc1ccccc1CNc1noc(-c2sccc2Br)n1 | 790 nM |
| CCCC(=O)NC(c1ccc(C(C)C)cc1)c1ccc2cccnc2c1O (configuration not stated) | 930 nM |
| CCCCOc1c(CCNCCCCNCCc2cc(F)c3ccccc3c2OCCCC)cc(F)c2ccccc12 | 630 nM |
| Cc1ccc2nc(/N=C(\N)NC(=O)NC3CCCCC3)nc(C)c2c1 | 620 nM |
| COc1ccc2ncc(F)c(CCN3C[C@H](CNCc4ccc5ccccc5c4)[C@H](O)C3)c2n1 | 500 nM |
| Cc1ccc(S(=O)(=O)N2CCN(C(=O)c3cc(-c4ccccc4)n[nH]3)CC2)cc1 | 600 nM |
| CC1CN(Cc2cccc(-c3ccc(-c4nc5ccccc5[nH]4)cc3)c2)CC(C)O1 (configuration not stated) | 860 nM |
| COc1ccc(CC(C)NCC(O)c2cccc(C(F)(F)F)c2)cc1 (configuration not stated) | 1580 nM |
